Source: US20120308548A1 (NOVA SOUTHEASTERN UNIVERSITY, priority 2010, published 2012)
“And” between values parts separate entries of the source, which are not always exact repeats. Equal values may be shown once. “Also recorded” adds a separate entry of the source. Read-outs that look alike come from different tables or passages of the source.

What was measured:
MEGL/2ABD = target: T1, MEGL/2ABD (Porphyromonas gingivalis, UniProt Q7MX71); type: biochemical; details: isotope assay, FIG. 13E
T1 construct: hexa-His tag with TEV protease site (N, cleaved yes); made in house; host or cells: E. coli BL21 (DE3)
Method: Typically the overall reaction of α-ketobutyrate formation was performed in a total volume of 24 μl. The reaction contained 4 μl of reaction buffer [150 mM Tris-HCl (pH 8.0)], 4 μl of 1 mM pyridoxal phosphate (PLP), 3 μl of H2O, 6 μl of storage buffer, and 4 μl of diluted protein (0.4 μg), gently mixed and incubated at 37° C. for 5 minutes. The reaction was started by adding 1.93×10^5 cpm of 1-^14C-L-methionine (8814 cpm/nmol) and the contents were incubated at 37° C. for 15 minutes. The reaction was stopped by boiling for a minute, cooled on ice for 2 minutes and centrifuged at 3575 g for 7 minutes. A 2 μl aliquot was then chromatographed on a silica gel plate using 25% 20 mM phosphate buffer (pH 7.0) and 75% acetonitrile. Following chromatography, the TLC plates were dried, and exposed to x-ray film for 36-48 hours (Eastman-Kodak Co). The respective spots of substrate and products were cut out and radioactivity determined by liquid scintillation. […]

MEGL = target: T2, MEGL (Porphyromonas gingivalis, UniProt Q7MX71); type: biochemical
T2 construct: His tag (N, cleaved yes); made in house
Method: This assay uses C^14-labeled methionine and recombinant, purified, HIS-TAG cleaved and further purified MEGL protein. The MEGL enzyme forms very specific radiolabeled nonvolatile C^14-labeled α-ketobutyrate. Further the products are separated by a silica gel-G thin layer chromatography (TLC) method using 75% acetonitrile and 25% 20 mM phosphate buffer (pH 7.0) solvent system.
Further characterization of the enzyme was made using these protocols.

HeLa cells = assay: Transfection with MEGL/2ABD construct, confocal microscopy (GFP, DAPI), HeLa; type: cell-based; details: for rescue of MEGL/2ABD-transfected HeLa cells from death: propargylglycine in culture medium (10 μM, 2 hours after transfection)
Description: (§1) The recombinant vector pMEGL-ET containing MEGL insert and pEGFP-C3 mammalian expression vector (Promega, Inc.) were digested with EcoR I and Bgl II restriction enzymes. The digested products were separated on 1% agarose to verify digestion and the MEGL insert was ligated into pEGFP-C3 vector. The ligated vector was then transformed into DH5α bacteria and the recombinant colonies were selected by kanamycin resistance. The plasmid from the recombinant colonies, were further tested for the insert by PCR using MEGL/2ABD specific primers. The recombinant bacteria, was then grown in bulk, plasmid isolated by maxi/mini preps using columns (Qiagen, Inc.). Purified plasmid was then used for mammalian transfection. HeLa, HEK-AD293T and BHK-21 cells (ATCC, Rockville, Md.) were grown in 75-cm^2 flasks in Dulbecco's modified Eagle's medium, supplemented with 10% fetal bovine serum 100 units/ml penicillin and 100 μg/ml streptomycin (Invitrogen Inc), in an atmosphere of 5% CO2, 95% air at 37° C. For confocal microscopy, cells were plated on cover slips in 35 mm^2 dishes. When cells reached 50-75% confluency they were placed in serum and antibiotic-free medium and co-transfected with plasmid DNA containing GFP and with or without MEGL/2ABD insert. […] Transfections of HEK-AD293T cells were performed using standard calcium phosphate methods. After incubation of cells for 4-18 hours, cells were washed with phosphate-buffered saline, fixed with 4% formaldehyde for 8 minutes, permeabilized using 0.2% Triton X-100 (Sigma-Aldrich) and mounted on glass slides using the ProLong Antifade Kit (Molecular Probes) for staining with DAPI using standard protocols. Samples were examined on a Zeiss LSM510 confocal microscope.
(§2) After 18 hour incubations cells were washed with phosphate-buffered saline, fixed, permeabilized and mounted on glass slides using the ProLong Antifade Kit (Molecular Probes) with DAPI staining as previously described by Enniga et al. 2006. Samples were examined on a Zeiss LSM510 confocal microscope.

HEK-AD293T cells [1] = assay: Transfection with MEGL/2ABD construct, confocal microscopy, HEK-AD293T; type: cell-based; details: for effect of expressed MEGL/2ABD on HEK-AD293T cells: cell aggregation: 18 hours after transfection
Description: as §1, §2

BHK-21 cells [2] = assay: Transfection with MEGL/2ABD construct, confocal microscopy, BHK-21; type: cell-based; details: for effect of expressed MEGL/2ABD on BHK-21 cells: cell aggregation: 18 hours after transfection
Description: as §1, §2

[3] = Method: Typically the overall reaction of α-ketobutyrate formation was performed in a total volume of 24 μl. The reaction contained 4 μl of reaction buffer [150 mM Tris-HCl (pH 8.0)], 4 μl of 1 mM pyridoxal phosphate (PLP), 3 μl of H2O, 6 μl of storage buffer, and 4 μl of diluted protein (0.4 μg), gently mixed and incubated at 37° C. for 5 minutes. The reaction was started by adding 1.93×10^5 cpm of 1-^14C-L-methionine (8814 cpm/nmol) and the contents were incubated at 37° C. for 15 minutes. The reaction was stopped by boiling for a minute, cooled on ice for 2 minutes and centrifuged at 3575 g for 7 minutes. A 2 μl aliquot was then chromatographed on a silica gel plate using 25% 20 mM phosphate buffer (pH 7.0) and 75% acetonitrile. Following chromatography, the TLC plates were dried, and exposed to x-ray film for 36-48 hours (Eastman-Kodak Co). The respective spots of substrate and products were cut out and radioactivity determined by liquid scintillation.
The activity was measured using different amounts of protein ranging from 0.1 to 1 μg and the reaction was performed for 5-30 minutes.
Reaction at each protein concentration was performed for 15 minutes at pH 8.0 according to the standard assay procedures described. Effect of time was tested using 0.4 μg of protein. […]

BHK-21 cells [4] = details: BHK-21, 18 hours after transfection
Method: (§3) The effect of MEGL on cell viability was determined using 3-[4,5-dimethylthiazol-2-yl]-2,5-diphenyl-tetrazolium bromide (MTT, Sigma-Aldrich). For MTT assay, cells were suspended at a concentration of ˜4×10^4 cells (180 μl/well). 20 μl of MTT solution (5 mg/ml) was added for each well and incubate at 37° C. and 5% CO2 for about 2-5 hours for purple color development. Formazan precipitates were dissolved in DMSO for 30 minutes at 37° C., and the absorbance was measured at 570 nm.
(§4) Viability of cells transfected with MEGL construct. Three different cell lines (Hela, BHK-21, and HEK-AD293T) were plated in 96-well plates and transfected with either vector expressing green fluorescent protein, GFP (pEGFP-C3), or MEGL and GFP (pEGFP-C3-MEGL). After 18 hours of transfection, cells were treated with MTT and viability was determined by measuring the MTT absorbance at λ570 nm. Control absorbance was arbitrarily determined as 100% viability.

HEK-AD293T cells [5] = details: 18 hours after transfection
Method: as §3, §4

[6] = propargylglycine in culture medium (10 μM, 2 hours after transfection)

T1 sequence (Q7MX71 7-399): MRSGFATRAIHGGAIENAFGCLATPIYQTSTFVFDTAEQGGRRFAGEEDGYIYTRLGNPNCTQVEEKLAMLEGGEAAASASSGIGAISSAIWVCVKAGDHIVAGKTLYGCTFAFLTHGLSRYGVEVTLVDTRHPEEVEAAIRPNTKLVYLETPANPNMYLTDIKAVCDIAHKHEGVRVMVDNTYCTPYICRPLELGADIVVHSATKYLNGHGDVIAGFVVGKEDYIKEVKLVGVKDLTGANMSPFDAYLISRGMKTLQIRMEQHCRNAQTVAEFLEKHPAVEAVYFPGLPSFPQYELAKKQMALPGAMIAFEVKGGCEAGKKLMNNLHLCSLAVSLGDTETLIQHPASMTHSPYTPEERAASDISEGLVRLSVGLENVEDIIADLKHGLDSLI
T2 sequence (Q7MX71 7-399): as above

Compound: N[C@@H](CCSC[C@H](N)C(=O)O)C(=O)O [L-cystathionine]
- relative MEGL/2ABD activity (L-methionine) in the presence of competing compound (MEGL/2ABD): 54.6%

Compound: C#CCC(N)C(=O)O (centres unmarked) [propargylglycine, reference compound]
- relative MEGL/2ABD activity (L-methionine) in the presence of competing compound (MEGL/2ABD): 0.26%
- effect of suicide inhibitor on MEGL activity (MEGL): completely knocked out the MEGL activity
- rescue of MEGL/2ABD-transfected HeLa cells from death (HeLa cells): restores cells from death; also recorded: restored viability
- rescue of MEGL/2ABD-transfected HeLa cells from death (HeLa cells; listed as Propargylglycine): restored cells from death
- rescue of MEGL/2ABD-transfected HeLa cells from death (HeLa cells; listed as propargyl glycine): restored nearly all cells from death
- effect on cell aggregation of MEGL/2ABD-transfected HEK-AD293T cells (HEK-AD293T cells [1]; [6]): inhibited MEGL/2ABD mediated cell aggregation; also recorded: prevented cell aggregation; also recorded: inhibited the cell aggregation
- effect on cell aggregation of MEGL/2ABD-transfected BHK-21 cells (BHK-21 cells [2]; [6]): inhibited MEGL/2ABD mediated cell aggregation; also recorded: prevented cell aggregation; also recorded: inhibited the cell aggregation

Compound: N[C@@H](CS)C(=O)O [L-cysteine]
- relative MEGL/2ABD activity (L-methionine) in the presence of competing compound (MEGL/2ABD): 24.5% and 25.5%

Compound: C[S+]([O-])CC[C@H](N)C(=O)O (some centres unmarked) [sulfoxymethionine, methionine-sulfoxide]
- relative MEGL/2ABD activity (L-methionine) in the presence of competing compound (MEGL/2ABD): 46.71%
- relative MEGL/2ABD activity (L-methionine) in the presence of competing compound (MEGL/2ABD; listed as methionine-sulfoxide): 46.7%

Compound: CSCC[C@@H](N)C(=O)O [D-methionine]
- relative MEGL/2ABD activity (L-methionine) in the presence of competing compound (MEGL/2ABD): 43.6%

Compound: C[Se]CC[C@H](N)C(=O)O [selenomethionine]
- relative MEGL/2ABD activity (L-methionine) in the presence of competing compound (MEGL/2ABD): 33.15%
- relative MEGL/2ABD activity (L-methionine) in the presence of competing compound (MEGL/2ABD; listed as seleno-methionine): 33.2%

Compound: N[C@@H](CCOC(=O)CCC(=O)O)C(=O)O [o-succinyl-homoserine, O-succinyl L-homoserine]
- relative MEGL/2ABD activity (L-methionine) in the presence of competing compound (MEGL/2ABD): 45.6%

Compound: methionine gamma lyase-2-aminobutyrate deaminase [MEGL-2ABD]
- overall α-ketobutyrate formation at temperatures 72-93° C. ([3]; 72-93° C.): very minimal
- temperature range of optimal activity ([3]; 15 minutes, pH 8.0, 0.4 μg protein): 37-55 °C
- optimal temperature (MEGL): 37-55 °C
- pH optimum (MEGL): 8.0
- Vmax (MEGL; oral pathology section): 0.57 μmol/min/mg protein
- effect of expressed MEGL/2ABD on HeLa cells (HeLa cells; 18 hours after transfection, listed as MEGL/2ABD): causes cell death; also recorded: significant cell death; also recorded: significant apoptosis
- HeLa cell death (HeLa cells; within 18 hours of transfection, judged by confocal images): 30%
- effect of expressed MEGL/2ABD on HEK-AD293T cells: cell aggregation (HEK-AD293T cells [1]): severe cell aggregation
- effect of expressed MEGL/2ABD on HEK-AD293T cells: cell aggregation (HEK-AD293T cells [1]; listed as MEGL): very prominent cell aggregation
- effect of expressed MEGL/2ABD on HEK-AD293T cells: cell aggregation (HEK-AD293T cells [1]; listed as MEGL/2ABD): severe cell aggregation; also recorded: significant cell aggregation
- effect of expressed MEGL/2ABD on BHK-21 cells: cell aggregation (BHK-21 cells [2]): severe cell aggregation
- effect of expressed MEGL/2ABD on BHK-21 cells: cell aggregation (BHK-21 cells [2]; listed as MEGL): very prominent cell aggregation
- effect of expressed MEGL/2ABD on BHK-21 cells: cell aggregation (BHK-21 cells [2]; listed as MEGL/2ABD): severe cell aggregation; also recorded: significant cell aggregation
- cell death (words) (BHK-21 cells [4]; listed as MEGL): no significant cell death
- cell death (words) (BHK-21 cells [4]; listed as MEGL/2ABD): no cell death
- cell death (words) (HEK-AD293T cells [5]; listed as MEGL): no significant cell death
- cell death (words) (HEK-AD293T cells [5]; listed as MEGL/2ABD): no cell death
